Drawing on patent US20250115598A1 (Anaxis Pharma Pty Ltd, priority 2021, published 2025), this text covers IC50, DC50 and Kd for 4 molecules.

Assay [1] concerns Immortalised Mouse Dermal Fibroblasts (MDFs). The experiment in a line: Cellular assay: inhibition of TSI induced necroptosis, CellTitre-Glo viability. Particulars: Mus musculus, Fibroblast; MDF, 3 hours TSI cocktail, Table 27; read-out: Inhibition of TSI-induced necroptosis (IC50 cell-based assay) in MDF. The method, boiled down:
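Immortalised mouse dermal fibroblasts (2200 cells/well) pretreated 30 min with compound, 10-point 1:3 series from 36 μM, 0.3% DMSO. Then 3 h at 37° C. with TNF (100 ng/ml), Smac mimetic (500 nM) and IDN-6556 (10 μM). CellTiter-Glo luminescence normalised to DMSO (100%) and DMSO+TSI (0%); IC50 from 4-parameter logistic fit.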

The target of another assay is endogenous MLKL in U937 (Homo sapiens (Human), UniProt Q8NB16). The experiment in a line: Degradation assay: endogenous MLKL in U937 (western blot). Particulars: U937, 24 h incubation, read-out: Degradation of endogenous MLKL in U937 (DC50 cell-based assay). In a few lines: (§1)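 MDF (seeded the day before) or U937 cells were treated 24 h at 37 °C, 10% CO2 with compound at 10, 2, 0.4, 0.08 and 0.016 μM final. Endogenous MLKL was quantified by western blot (anti-MLKL 3H1), normalized to GAPDH. Percent degradation was taken relative to DMSO control.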
(In general: In western blotting, separated proteins are transferred to a membrane and probed.)

The target of another assay is endogenous MLKL in MDF (Mus musculus (Mouse), UniProt Q9D2Y4). The experiment in a line: Degradation assay: endogenous MLKL in MDF (western blot). The following applies: MDF cells, 24 h incubation with compound, MLKL adjusted for loading with GAPDH, normalized to DMSO only control, read-out: Degradation of endogenous MLKL in MDF (DC50 cell-based assay). In a few lines:
as §1

The target of another assay is human MLKL (full length) (Homo sapiens (Human), UniProt Q8NB16). The experiment in a line: KINOMEscan binding assay, human MLKL (full length). Particulars: hMLKL, Table 25; read-out: MLKL (KD). The method, boiled down:
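Active-site competition binding: DNA-tagged kinase (T7 phage fusion from BL21-derived E. coli lysate, or HEK-293-expressed) captured on immobilized-ligand beads, with bound kinase in the eluate quantified by qPCR. Compounds ran as 11-point 3-fold dilutions, 1% DMSO, top 30,000 nM for most. Kd came from a Hill fit (slope −1).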

Molecules are shown by their SMILES.

Chain of endogenous MLKL in MDF (Q9D2Y4 whole entry): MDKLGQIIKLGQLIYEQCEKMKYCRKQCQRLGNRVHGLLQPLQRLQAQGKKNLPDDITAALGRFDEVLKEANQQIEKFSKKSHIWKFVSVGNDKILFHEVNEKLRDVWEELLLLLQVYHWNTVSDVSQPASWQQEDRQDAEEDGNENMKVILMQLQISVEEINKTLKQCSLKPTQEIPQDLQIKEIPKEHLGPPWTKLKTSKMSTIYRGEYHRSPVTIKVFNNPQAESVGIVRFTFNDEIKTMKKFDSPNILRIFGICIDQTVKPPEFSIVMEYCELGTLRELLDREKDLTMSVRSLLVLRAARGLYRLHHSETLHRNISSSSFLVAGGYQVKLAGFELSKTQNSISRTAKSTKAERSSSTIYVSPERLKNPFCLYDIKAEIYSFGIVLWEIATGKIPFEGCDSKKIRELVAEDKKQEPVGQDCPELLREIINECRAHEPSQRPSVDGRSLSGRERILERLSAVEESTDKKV
Chain of endogenous MLKL in U937 (Q8NB16 whole entry): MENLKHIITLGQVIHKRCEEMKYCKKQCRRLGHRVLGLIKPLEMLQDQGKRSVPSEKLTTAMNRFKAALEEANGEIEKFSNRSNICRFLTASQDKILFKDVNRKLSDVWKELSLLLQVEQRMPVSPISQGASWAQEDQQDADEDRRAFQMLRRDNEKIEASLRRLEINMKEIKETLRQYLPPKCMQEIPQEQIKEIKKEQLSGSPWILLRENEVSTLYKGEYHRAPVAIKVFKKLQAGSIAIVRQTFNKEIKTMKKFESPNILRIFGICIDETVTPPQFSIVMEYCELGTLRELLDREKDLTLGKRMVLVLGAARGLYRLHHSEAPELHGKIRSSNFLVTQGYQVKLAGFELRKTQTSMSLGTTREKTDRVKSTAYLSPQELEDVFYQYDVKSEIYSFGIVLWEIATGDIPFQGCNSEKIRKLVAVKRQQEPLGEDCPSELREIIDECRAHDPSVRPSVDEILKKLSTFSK
Chain of human MLKL (full length) (Q8NB16 whole entry, the tested form may be a part): as the sequence (Q8NB16 whole entry) above

A word on the IC50: it is the point on the concentration scale where inhibition reaches its midpoint. Usually DC50 stands for the concentration giving 50% degradation. As a reminder, the Kd is the free concentration of one partner at which half of the binding sites on the other are occupied at equilibrium, for simple one-to-one binding. For `C[C@H](Oc1cc(-c2nn(C)c3c(-c4cnn(C5CCN(C(=O)[C@H]6C[C@@H]6C6CCN(c7cccc8c7C(=O)N(C7CCC(=O)NC7=O)C8=O)CC6)CC5)c4)cnc(N)c23)ccc1NS(=O)(=O)C(F)F)c1ccc(F)cc1` (stereo in doubt) [Compound 1130, N-[4-(4-amino-7-{1-[1-(2-{1-[2-(2,6-dioxopiperidin-3-yl)-1,3-dioxo-2,3-dihydro-1H-isoindol-4-yl]piperidin-4-yl}-(trans)-cyclopropanecarbonyl)piperidin-4-yl]-1H-pyrazol-4-yl}-1-methyl-1H-pyrazolo[4,3-c]pyridin-3-yl)-2-[(1S)-1-(4-fluorophenyl)ethoxy]phenyl]-1,1-difluoromethane-sulfonamide], in assay [1], the concentration for half-maximal inhibition (IC50) is below 1 µM. Also, the DC50 at endogenous MLKL in U937 and on endogenous MLKL in MDF was below 1 µM in each case. Besides, the Kd at human MLKL (full length) was 0.01 to 1 µM.

Consider `C[C@H](Oc1cc(-c2nn(C)c3c(-c4cnn(C5CCN(C(=O)COC6CCN(c7cccc8c7C(=O)N(C7CCC(=O)NC7=O)C8=O)CC6)CC5)c4)cnc(N)c23)ccc1NS(=O)(=O)C(F)F)c1ccc(F)cc1` (stereo partly drawn) [Compound 1072, N-{4-[4-amino-7-(1-{1-[2-({1-[2-(2,6-dioxopiperidin-3-yl)-1,3-dioxo-2,3-dihydro-1H-isoindol-4-yl]piperidin-4-yl}oxy)acetyl]piperidin-4-yl}-1H-pyrazol-4-yl)-1-methyl-1H-pyrazolo[4,3-c]pyridin-3-yl]-2-[(1S)-1-(4-fluorophenyl)ethoxy]phenyl}-1,1-difluoromethane-sulfonamide], for which the half-maximal inhibitory concentration (IC50) in assay [1] is 1 to 10 µM. The DC50 at endogenous MLKL in U937 and at endogenous MLKL in MDF was below 1 µM each time. Besides, the dissociation constant (Kd) on human MLKL (full length) was below 0.01 µM.

On to `C[C@H](Oc1cc(-c2nn(C)c3c(-c4cnn(C5CCN(C(=O)C6CCN(c7cccc8c7C(=O)N(C7CCC(=O)NC7=O)C8=O)C6)CC5)c4)cnc(N)c23)ccc1NS(=O)(=O)C(F)F)c1ccc(F)cc1` (stereo partly drawn) [Compound 1054, N-(4-{4-amino-7-[1-(1-{1-[2-(2,6-dioxopiperidin-3-yl)-1,3-dioxo-2,3-dihydro-1H-isoindol-4-yl]pyrrolidine-3-carbonyl}piperidin-4-yl)-1H-pyrazol-4-yl]-1-methyl-1H-pyrazolo [4,3-c]pyridin-3-yl}-2-[(1S)-1-(4-fluorophenyl)ethoxy]phenyl)-1,1-difluoromethanesulfonamide], for which the IC50 in assay [1] is below 1 µM. Also, the DC50 at endogenous MLKL in U937 and on endogenous MLKL in MDF was below 1 µM each time. Moreover, the dissociation constant (Kd) at human MLKL (full length) is 0.01 to 1 µM.

As for `C[C@H](Oc1cc(-c2nn(C)c3c(-c4cnn(C5CCN(C(=O)[C@H]6C[C@H](Nc7cccc8c7C(=O)N(C7CCC(=O)NC7=O)C8=O)C6)CC5)c4)cnc(N)c23)ccc1NS(=O)(=O)C(F)F)c1ccc(F)cc1` (stereo partly drawn) [Compound 1047, N-{4-[4-amino-1-methyl-7-(1-{1-[(trans)-3-{[2-(2,6-dioxopiperidin-3-yl)-1,3-dioxo-2,3-dihydro-1H-isoindol-4-yl]amino}cyclobutanecarbonyl]piperidin-4-yl}-1H-pyrazol-4-yl)-1H-pyrazolo[4,3-c]pyridin-3-yl]-2-[(1 S)-1-(4-fluorophenyl)ethoxy]phenyl}-1,1-difluoromethanesulfonamide], the IC50 in assay [1] is below 1 µM. The 50% degradation concentration (DC50) on endogenous MLKL in U937 and at endogenous MLKL in MDF was below 1 µM each time. Also, the Kd at human MLKL (full length) was below 0.01 µM.
